Data from US6503727B1, “Process for the preparation of an antibiotic” (Gist-Brocades, B.V., priority 1995, dated 2003).
Read-outs that look alike come from different tables or passages of the source.

Assays:
[1] = final pH 4.5, 2 hours, 20° C.
Procedure: (§1) The following synthetic mixtures were prepared, with a final pH of 4.5:
(§2) After 2 hours' incubation in a shaker incubator (20° C.) samples were taken and the dissolved concentration of each of these components was determined.

[2] = Effect of PGA and AMPI on the solubility of 6-APA (dissolved concentrations in synthetic mixtures); conditions: final pH 4.5, 2 hours, 20° C.
Procedure: as §1, §2

[3] = Effect of PGA and CEX on the solubility of 7-ADCA (dissolved concentrations in synthetic mixtures); conditions: final pH 4.5, 2 hours, 20° C.
Procedure: Effect of PGA and PEX on the Solubility of 7-ADCA
The following synthetic mixtures were prepared, with a final pH of 4.5;
3% (m/m) 7-ADCA and 3.0% (m/m) CEX.H2O in water.
as §2

[4] = Example II Mixture 2: 3% (m/m) 6-APA and 0.4% (m/m) PG in water
[5] = Example II Mixture 3: 3% (m/m) 6-APA, 0.4% (m/m) PG and 1.5% (m/m) PGA in water
[6] = Example II Mixture 4: 3% (m/m) 6-APA, 0.4% (m/m) PG, 1.5% (m/m) PGA and 3.0% (m/m) AMPI in water
[7] = Example I Mixture 3: 3% (m/m) 7-ADCA, 0.4% (m/m) PG and 1.5% (m/m) PGA in water
[8] = Example I Mixture 4: 3% (m/m) 7-ADCA, 0.4% (m/m) PC, 1.5% (m/m) PGA and 3.0% (m/m) CEX.H2O in water

CC1(C)S[C@@H]2[C@H](N)C(=O)N2[C@H]1C(=O)O [6-APA, 6-aminopenicillanic acid]
Dissolved Concentrations ([1]; Example III Mixture 1: 3% (m/m) 6-APA in water): 0.35 % (m/m) | Dissolved Concentrations ([1]; Example III Mixture 2: 3% (m/m) 6-APA and 0.5% (m/m) HPG in water): 0.35 % (m/m) | Dissolved Concentrations ([1]; Example III Mixture 3: 3% (m/m) 6-APA, 0.5% (m/m) HPG and 1.5% (m/m) HPGA in water): 0.40 % (m/m) | Dissolved Concentrations ([1]; Example III Mixture 4: 3% (m/m) 6-APA, 0.5% (m/m) HPG and 2.0% HPG-Me in water): 0.50 % (m/m) | Dissolved Concentrations ([1]; Example III Mixture 5: 3% (m/m) 6-APA, 0.5% (m/m) HPG, 1.5% (m/m) HPGA and 3.0% AMOX in water): 1.40 % (m/m) | Dissolved Concentrations ([1]; Example III Mixture 6: 3.0% (m/m) 6-APA, 0.5% (m/m) HPG, 2.0% (m/m) HPG-Me and 3.0% (m/m) AMOX in water): 2.15 % (m/m) | dissolved concentration ([2]; Example II Mixture 1: 3% (m/m) 6-APA in water): 0.35 | dissolved concentration [2, 4]: 0.40 | dissolved concentration [2, 5]: 0.40 | dissolved concentration [2, 6]: 0.90

N[C@@H](C(=O)O)c1ccccc1 [PG, D-phenyl glycine]
Dissolved Concentrations ([3]; Example I Mixture 2: 3% (m/m) 7-ADCA and 0.4% (m/m) PG in water): 0.40 % (m/m) | Dissolved Concentrations [3, 7]: 0.40 % (m/m) | Dissolved Concentrations [3, 8]: 0.40 % (m/m) | dissolved concentration [2, 4]: 0.4 | dissolved concentration [2, 5]: 0.4 | dissolved concentration [2, 6]: 0.4

NC(=O)[C@H](N)c1ccccc1 [PGA, D-phenyl glycine amide]
Dissolved Concentrations [3, 7]: 1.5 % (m/m) | Dissolved Concentrations [3, 8]: 1.5 % (m/m) | dissolved concentration [2, 5]: 1.5 | dissolved concentration [2, 6]: 1.5
